Data set [1] relates to Erysiphe graminis f.sp. tritici. The data set can be described thus: Erysiphe graminis f.sp. tritici (wheat powdery mildew) leaf disk assay. Format: in vivo. The settings on record: Blumeria graminis, foliar, 96 h, preventive, four days after inoculation, read-out: control of fungal infection, Erysiphe graminis fsp. tritici.
Data set [2] relates to Puccinia recondita f.sp. tritici. The data set can be described thus: Puccinia recondita f.sp. tritici (wheat brown rust) leaf disk assay. The note with it: foliar, 216 h, preventive, nine days after inoculation, read-out: control of fungal infection, Puccinia recondita f.sp. tritici. Format: in vivo.
Data set [3] concerns Pyricularia oryzae. The data set can be described thus: whole plant or invertebrate. It is filed as in vivo. The settings on record: foliar, 96 h.
For data set [4], the system named is Pythium ultimum. Kind of data set: Pythium ultimum (Damping off) growth inhibition in potato dextrose broth. Format: cell-based. The note with it: Globisporangium ultimum, 48 hours, read-out: control of fungal infection, Pythium ultimum.
Data set [5] relates to Aedes aegypti. Kind of data set: Aedes aegypti (Yellow fever mosquito) larvae test. The settings on record: 48 h. It is filed as in vivo.
For data set [6], the system named is Heliothis virescens. The data set can be described thus: Heliothis virescens (Tobacco budworm) egg test on artificial diet. The settings on record: 96 h, read-out: control of Heliothis virescens.
Data set [7] relates to Tetranychus urticae. The settings on record: foliar, 192 h, read-out: control of Tetranychus urticae.
Data set [8] concerns Phytophthora infestans. The data set can be described thus: whole plant or invertebrate. Format: in vivo. The note with it: foliar, 96 h, read-out: control of fungal infection, Phytophthora infestans.
For data set [9], the system named is Plasmopara viticola. The data set can be described thus: Plasmopara viticola (downy mildew of grapevine) leaf disk assay. Format: in vivo. The settings on record: foliar, 168 h, preventive, seven days after inoculation, read-out: control of fungal infection, Plasmopara viticola.
For data set [10], the system named is Plutella xylostella. The data set can be described thus: Plutella xylostella (Diamond back moth) artificial diet test. The note with it: 120 h, read-out: control of Plutella xylostella.
Setting [11] is: read-out: control of fungal infection, Pyricularia oryzae (at least 60% list).
The mark [12] stands for this setting: read-out: control of fungal infection, Pyricularia oryzae (at least 80% list).

Like-named read-outs stand apart in the source and are kept apart here. Bounds are passed on as bounds.

By melting point is commonly meant the temperature of the solid-liquid transition.

Turning to `FC(F)(F)c1ccc(OC2C[C@H]3CC[C@@H](C2)N3c2ncnc3ccsc23)nc1` (some centres unmarked) [Example 2.77], the pest or weed control at 200 ppm was at least 80% in data set [1], at least 80% in [2] and at least 60% in data set [3] (setting [11]). In [4], the inhibition of growth at 200 ppm is at least 60%.
In data set [5], `FC(F)(F)c1ccc(OC2C[C@H]3CC[C@@H](C2)N3c2ncnc3ccccc23)nc1` (some centres unmarked) [Example 2.85] showed a pest or weed control at 2 ppm of at least 80%. For the same compound, the pest or weed control at 200 ppm is at least 80% in data set [1], at least 60% in data set [3] (setting [11]), at least 80% in data set [6] and at least 80% in [7].
With `CCc1ncnc(N2[C@@H]3CC[C@H]2CC(Oc2ccc(C)nc2)C3)c1Cl` (some centres unmarked) [Example 2.151], the pest or weed control at 2 ppm in data set [5] was at least 80%. Also, the pest or weed control at 200 ppm in [1] is at least 80%. Besides, the inhibition of growth at 200 ppm in data set [4] was at least 60%.
On to `Cc1ccc(OC2C[C@H]3CC[C@@H](C2)N3c2ccnc3c2c(C)nn3C)cn1` (some centres unmarked) [Example 2.164], for which the melting point was 153 °C. The pest or weed control at 200 ppm in data set [1] was at least 80%. Further, in data set [4], the inhibition of growth at 200 ppm was at least 60%.
`CCC(=O)c1ccc(OC2C[C@H]3CC[C@@H](C2)N3c2ncnc(CC)c2Cl)cc1` (some centres unmarked) [Example 2.166] had a pest or weed control at 2 ppm in data set [5] of at least 80%. Moreover, the pest or weed control at 200 ppm in data set [2], in [8], in [6] and in [7] was at least 80% each time.
`Fc1cccc2c(N3[C@@H]4CC[C@H]3CC(Oc3cccc(C(F)(F)F)n3)C4)ccnc12` (some centres unmarked) [Example 2.172] had a melting point of 133 °C. Further, the inhibition of growth at 200 ppm in data set [4] is at least 60%.
`FC(F)(F)c1cccc(OC2C[C@H]3CC[C@@H](C2)N3c2ccnc3cc(Cl)ccc23)n1` (some centres unmarked) [Example 2.174]: the melting point was determined as 177 °C. For the same compound, the inhibition of growth at 200 ppm in data set [4] was at least 60%.
`FC(F)(F)c1cccc(OC2C[C@H]3CC[C@@H](C2)N3c2ccnc3c(Cl)cccc23)n1` (some centres unmarked) [Example 2.175] displayed a melting point of 116 °C. In addition, in [3] (setting [11]), the pest or weed control at 200 ppm is at least 60%. Moreover, the pest or weed control at 200 ppm in data set [8] is at least 80%. In addition, the inhibition of growth at 200 ppm in data set [4] was at least 60%.
For `Fc1cccc2c(N3[C@@H]4CC[C@H]3CC(Oc3cc(C(F)(F)F)ccn3)C4)ccnc12` (some centres unmarked) [Example 2.185], the results for the pest or weed control at 200 ppm in [1], in data set [3] (setting [11]) and in [8] were at least 80%, at least 60% and at least 80%, respectively. In data set [4], the inhibition of growth at 200 ppm is at least 60%.
In turn, `CCc1ncnc(N2C3CCC2CC(=NOCC2CC2)C3)c1Cl` [Example 5.3] came in with a pest or weed control at 2 ppm in data set [5] of at least 80%. The pest or weed control at 200 ppm in data set [1] and in data set [2] was at least 80% throughout. Also, in [4], the inhibition of growth at 200 ppm is at least 60%.
In data set [5], `CCc1ncnc(N2C3CCC2CC(=NOCc2ccncc2)C3)c1Cl` [Example 5.6] came in with a pest or weed control at 2 ppm of at least 80%. The pest or weed control at 200 ppm in data set [2], in [8] and in [7] was at least 80% in each case. The inhibition of growth at 200 ppm in data set [4] was at least 60%.
Consider `CCc1ncnc(N2C3CCC2CC(=NOCc2ccc(OC)cc2)C3)c1Cl` [Example 5.16], for which the pest or weed control at 2 ppm in data set [5] is at least 80%. Besides, the pest or weed control at 200 ppm in data set [1], in data set [2], in data set [9], in [10], in data set [6] and in data set [7] was at least 80% each time.
In turn, `CCc1ncnc(N2C3CCC2CC(=NOCc2ccccn2)C3)c1Cl` [Example 5.41] showed a pest or weed control at 2 ppm in [5] of at least 80%. Also, the pest or weed control at 200 ppm in data set [1], in data set [2], in [8] and in data set [6] was at least 80% each time. For the same compound, the inhibition of growth at 200 ppm in data set [4] is at least 60%.
In the case of `CCc1ncnc(N2C3CCC2CC(=NOCc2ccc(Br)cc2F)C3)c1Cl` [Example 5.85], the pest or weed control at 200 ppm in data set [10], in [6] and in data set [7] was at least 80% throughout.
In the case of `CCc1ncnc(N2C3CCC2CC(=NOCc2cc(OC)nc(N)n2)C3)c1Cl` [Example 5.91], the pest or weed control at 200 ppm in data set [1], in data set [2] and in data set [8] was at least 80% throughout. In addition, in data set [4], the inhibition of growth at 200 ppm was at least 60%.
In the case of `CCc1ncnc(N2C3CCC2CC(=NOCc2noc(C)n2)C3)c1Cl` [Example 5.92], the pest or weed control at 2 ppm in data set [5] is at least 80%. The pest or weed control at 200 ppm in [1], in data set [2], in [10], in data set [6] and in data set [7] was at least 80% throughout.
The compound `CCc1ncnc(N2C3CCC2CC(=NOCc2csc(C)n2)C3)c1Cl` [Example 5.98] displayed a pest or weed control at 2 ppm in [5] of at least 80%. In addition, the pest or weed control at 200 ppm in [1] and in [2] was at least 80% each time. The inhibition of growth at 200 ppm in data set [4] was at least 60%.
For the compound `CCc1ncnc(N2C3CCC2CC(=NOCc2ccc(S(C)(=O)=O)cc2)C3)c1Cl` [Example 5.106], the pest or weed control at 200 ppm in [1], in data set [2], in data set [8] and in data set [7] was at least 80% in each case. Also, the inhibition of growth at 200 ppm in data set [4] was at least 60%.
Regarding `Cc1ccc(CON=C2CC3CCC(C2)N3c2ncnc3sccc23)cc1` [Example 5.145], the pest or weed control at 2 ppm in data set [5] is at least 80%. For the same compound, the pest or weed control at 200 ppm in [1] is at least 80%; in data set [2], at least 80%; in data set [3] (setting [11]), at least 60%; in data set [8], at least 80%; in data set [9], at least 80%; in [10] it was at least 80%. The pest or weed control at 200 ppm in data set [6] and in data set [7] was at least 80% in each case.
In [5], `c1ccc(CON=C2CC3CCC(C2)N3c2ncnc3sccc23)nc1` [Example 5.149] showed a pest or weed control at 2 ppm of at least 80%. Also, the pest or weed control at 200 ppm in data set [1], in data set [2] and in data set [3] (setting [12]) was at least 80% throughout. The inhibition of growth at 200 ppm in data set [4] was at least 60%.
For `COc1ccc(CON=C2CC3CCC(C2)N3c2ncnc3sccc23)cc1` [Example 5.165], the pest or weed control at 200 ppm in data set [1] and in data set [8] was at least 80% throughout. Moreover, in data set [4], the inhibition of growth at 200 ppm is at least 60%.
With `Fc1cc(F)cc(CON=C2CC3CCC(C2)N3c2ncnc3sccc23)c1` [Example 5.205], the pest or weed control at 200 ppm in [1], in [2], in data set [3] (setting [12]) and in data set [8] was at least 80% in each case. In data set [4], the inhibition of growth at 200 ppm was at least 60%.
In [5], `Fc1cccc(CON=C2CC3CCC(C2)N3c2ncnc3sccc23)c1F` [Example 5.219] displayed a pest or weed control at 2 ppm of at least 80%. In addition, the pest or weed control at 200 ppm in data set [1] is at least 80%; in data set [2], at least 80%; in [3] (setting [11]), at least 60%; in [3] (setting [12]), at least 80%; in [8] it was at least 80%; in data set [10] it was at least 80%. Besides, in [4], the inhibition of growth at 200 ppm was at least 60%.
As to `CS(=O)(=O)c1ccc(CON=C2CC3CCC(C2)N3c2ncnc3sccc23)cc1` [Example 5.248], the pest or weed control at 200 ppm in [1], in data set [2], in [8] and in [7] was at least 80% in each case. For the same compound, the inhibition of growth at 200 ppm in [4] was at least 60%.
For `CCCCC1COC2(CC3CCC(C2)N3c2ncnc3sccc23)O1` (centres unmarked) [Example 6.3], the pest or weed control at 2 ppm in data set [5] is at least 80%. The pest or weed control at 200 ppm in data set [1], in data set [8], in data set [9], in data set [10] and in data set [6] was at least 80% in each case.
In turn, `COc1ccc(CC2CC3CCC(C2)N3c2ncnc3sccc23)cc1` (centres unmarked) [Example 7.11] gave a pest or weed control at 2 ppm in data set [5] of at least 80%. Also, the pest or weed control at 200 ppm in data set [2] was at least 80%; in data set [3] (setting [11]) it was at least 60%; in data set [9], at least 80%; in data set [6], at least 80%; in data set [7] it was at least 80%.
In turn, `Cc1csc(CC2CC3CCC(C2)N3c2ncnc3sccc23)n1` (centres unmarked) [Example 7.16] yielded a melting point of 132 °C. In addition, the pest or weed control at 200 ppm in [2] was at least 80%. Besides, in data set [4], the inhibition of growth at 200 ppm is at least 60%.
In the case of `CCc1ncnc(N2C3CCC2CC(Cc2ccc(OC)cc2)C3)c1Cl` (centres unmarked) [Example 7.32], the pest or weed control at 2 ppm in [5] is at least 80%. The pest or weed control at 200 ppm in data set [2], in data set [10], in [6] and in data set [7] was at least 80% each time.
